In US11046686B2, “Thiadiazole IRAK4 compounds” (Gilead Sciences, Inc., priority 2018, dated 2021):

Each compound was assayed on TNFα (assay: IRAK4 Monocyte TNFα Cell Based Assay). Conditions: Homo sapiens, Monocyte, human monocytes; second part of Table 2, compounds 33-343; unit inferred; read-out: EC50 MONO TNF HTRF.
Parameters: species or system human
Method in brief: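 Human monocytes (5,000/well) pretreated with compound 1 h at 37 °C (0.1% DMSO final), then stimulated with 50 pg/ml LPS for 4 h. Secreted TNFα measured by TR-FRET two-antibody detection after overnight incubation at room temperature; % control relative to unstimulated and LPS-stimulated wells.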

| EC50 [nM] | SMILES |
| --- | --- |
| 1000 | CC(C)Nc1cc(-c2ccc3cc(C#N)cnn23)ncc1-c1nnc(N2CCC(F)(F)CC2)s1 [Example 294, 7-(5-(5-(4,4-difluoropiperidin-1-yl)-1,3,4-thiadiazol-2-yl)-4-(isopropylamino)pyridin-2-yl)pyrrolo[1,2-b]pyridazine-3-carbonitrile] |

Same assay, conditions: Homo sapiens, Monocyte, read-out: EC50 MONO TNF HTRF

| SMILES | EC50 [nM] |
| --- | --- |
| CC(=O)N1C2CC1CN(c1nnc(-c3cnc(-c4ccc5cc(C#N)cnn45)cc3NC3(C)COC3)s1)C2 [Example 111, 7-(5-(5-(6-acetyl-3,6-diazabicyclo[3.1.1]heptan-3-yl)-1,3,4-thiadiazol-2-yl)-4-((3-methyloxetan-3-yl)amino)pyridin-2-yl)pyrrolo[1,2-b]pyridazine-3-carbonitrile] | 8.8 |

Same assay, conditions: human monocytes; second part of Table 2, compounds 33-343; unit inferred; read-out: EC50 MONO TNF HTRF

| SMILES | EC50 [nM] |
| --- | --- |
| CC(C)Nc1cc(-c2ccc3cc(C#N)cnn23)ncc1-c1nnc(N2C[C@H]3CC[C@@H](C2)[C@@H]3NC(=O)C2(C)CCOCC2)s1 [Example 95, N-((1R,5S,8s)-3-(5-(6-(3-cyanopyrrolo[1,2-b]pyridazin-7-yl)-4-(isopropylamino)pyridin-3-yl)-1,3,4-thiadiazol-2-yl)-3-azabicyclo[3.2.1]octan-8-yl)-4-methyltetrahydro-2H-pyran-4-carboxamide] | 4.1 |
| COC(=O)NC[C@H]1C[C@H](Nc2cc(-c3ccc4cc(C#N)cnn34)ncc2-c2nnc(N3CCN4CCOC[C@H]4C3)s2)C1 [Example 51, methyl (((1R,3r)-3-((2-(3-cyanopyrrolo[1,2-b]pyridazin-7-yl)-5-(5-((R)-hexahydropyrazino[2,1-c][1,4]oxazin-8(1H)-yl)-1,3,4-thiadiazol-2-yl)pyridin-4-yl)amino)cyclobutyl)methyl)carbamate] | 4.7 |
| CC(C)Nc1cc(-c2ccc3cc(C#N)cnn23)ncc1-c1nnc([C@H]2CC[C@H](NC(=O)CN=S(C)(C)=O)CC2)s1 [Compound 339] | 9.1 |
| C[C@H](C#N)Nc1cc(-c2ccc3cc(C#N)cnn23)ncc1-c1nnc(N2CC3CC(C2)N3C(=O)C(C)(C)O)s1 [Example 115] | 3.5 |
| CC(C)Nc1cc(-c2ccc3cc(C#N)cnn23)ncc1-c1nnc(N2C[C@H]3CC[C@@H](C2)[C@H]3O)s1 [Example 146, 7-(5-(5-((1R,5S,8r)-8-hydroxy-3-azabicyclo[3.2.1]octan-3-yl)-1,3,4-thiadiazol-2-yl)-4-(isopropylamino)pyridin-2-yl)pyrrolo[1,2-b]pyridazine-3-carbonitrile] | 5.2 |
| CNc1cc(-c2ccc3cc(C#N)cnn23)ncc1-c1nnc(N2C[C@H]3C[C@@H](C2)[C@@H]3NC(C)=O)s1 [Example 176, N-((1R,5S,6s)-3-(5-(6-(3-cyanopyrrolo[1,2-b]pyridazin-7-yl)-4-(methylamino)pyridin-3-yl)-1,3,4-thiadiazol-2-yl)-3-azabicyclo[3.1.1]heptan-6-yl)acetamide] | 23.5 |
| CC(=O)N[C@H]1CC[C@@H](c2nnc(-c3cnc(-c4ccc5cc(C#N)cnn45)cc3NC(C)C)s2)OC1 [Example 84, N-((3S,6S)-6-(5-(6-(3-cyanopyrro1o[1,2-b]pyridazin-7-yl)-4-(isopropylamino)pyridin-3-yl)-1,3,4-thiadiazol-2-yl)tetrahydro-2H-pyran-3-yl)acetamide] | 8.6 |
| CC(C)Nc1cc(-c2ccc3cc(C#N)cnn23)ncc1-c1nnc(N2C[C@H]3CC[C@@H](C2)[C@@H]3NC(=O)[C@H]2C[C@@](C)(O)C2)s1 [Example 93, (1s,3S)-N-((1R,5S,8s)-3-(5-(6-(3-cyanopyrrolo[1,2-b]pyridazin-7-yl)-4-(isopropylamino)pyridin-3-yl)-1,3,4-thiadiazol-2-yl)-3-azabicyclo[3.2.1]octan-8-yl)-3-hydroxy-3-methylcyclobutane-1-carboxamide] | 5.9 |
| CC(C)Nc1cc(-c2ccc3cc(C#N)cnn23)ncc1-c1nnc(N2CC3(CCNC3=O)C2)s1 [Example 164] | 17.5 |
| CC(C)Nc1cc(-c2ccc3cc(C#N)cnn23)ncc1-c1nnc([C@H]2CC[C@H](NC(=O)C3CCN(C)CC3)CC2)s1 [Compound 340] | 9.1 |
| CC(C)Nc1cc(-c2ccc3cc(C#N)cnn23)ncc1-c1nnc(N2C3CC2CN(C(=O)CN=S(C)(C)=O)C3)s1 [Compound 276, 7-(5-(5-(3-(2-((dimethyl(oxo)-16-sulfanylidene)amino)acetyl)-3,6-diazabicyclo[3.1.1]heptan-6-yl)-1,3,4-thiadiazol-2-yl)-4-(isopropylamino)pyridin-2-yl)pyrrolo[1,2-b]pyridazine-3-carbonitrile] | 7.8 |
| CC(C)Nc1cc(-c2ccc3cc(C#N)cnn23)ncc1-c1nnc(N2C[C@H]3CC[C@@H](C2)[C@@H]3NC(=O)N2CCN(S(C)(=O)=O)CC2)s1 [Example 106, N-((1R,5S,8s)-3-(5-(6-(3-cyanopyrrolo[1,2-b]pyridazin-7-yl)-4-(isopropylamino)pyridin-3-yl)-1,3,4-thiadiazol-2-yl)-3-azabicyclo[3.2.1]octan-8-yl)-4-(methylsulfonyl)piperazine-1-carboxamide] | 2.6 |
| CC(=O)NC1CN(c2nnc(-c3cnc(-c4ccc5cc(C#N)cnn45)cc3NC(C)C)s2)CC1(F)F (stereo not drawn) [Compound 327] | 10.2 |
| CC1(Nc2cc(-c3ccc4cc(C#N)cnn34)ncc2-c2nnc(N3C[C@H]4CC[C@@H](C3)[C@H]4O)s2)COC1 [Example 149, 7-(5-(5-((1R,5S,8r)-8-hydroxy-3-azabicyclo[3.2.1]octan-3-yl)-1,3,4-thiadiazol-2-yl)-4-((3-methyloxetan-3-yl)amino)pyridin-2-yl)pyrrolo[1,2-b]pyridazine-3-carbonitrile] | 4.9 |
| CC(=O)N[C@H]1[C@@H]2CC[C@H]1CN(c1nnc(-c3cnc(-c4ccc5cc(C#N)cnn45)cc3NC(C)C)s1)C2 [Example 39] | 10.4 |
| COC(=O)NC[C@H]1C[C@H](Nc2cc(-c3ccc4cc(C#N)cnn34)ncc2-c2nnc(N3C[C@H]4CC[C@@H](C3)[C@@H]4NC(C)=O)s2)C1 [Example 52] | 4.1 |
| CC(C)Nc1cc(-c2ccc3cc(C#N)cnn23)ncc1-c1nnc([C@H]2CC[C@H](NC(=O)C3CC3)CC2)s1 [Example 125, N-((1r,4r)-4-(5-(6-(3-cyanopyrrolo[1,2-b]pyridazin-7-yl)-4-(isopropylamino)pyridin-3-yl)-1,3,4-thiadiazol-2-yl)cyclohexyl)cyclopropanecarboxamide] | 5.4 |
| CC(C)Nc1cc(-c2ccc3cc(C#N)cnn23)ncc1-c1nnc(N2C[C@H]3CC[C@@H](C2)[C@@H]3NC(=O)CN=S(C)(C)=O)s1 [Example 98, N-((1R,5S,8s)-3-(5-(6-(3-cyanopyrrolo[1,2-b]pyridazin-7-yl)-4-(isopropylamino)pyridin-3-yl)-1,3,4-thiadiazol-2-yl)-3-azabicyclo[3.2.1]octan-8-yl)-2-((dimethyl(oxo)-16-sulfanylidene)amino)acetamide] | 3.2 |
| CC(=O)N[C@@H]1[C@@H]2CC[C@H]1CN(c1nnc(-c3cnc(-c4ccc5cc(C#N)cnn45)cc3NC(C)C)s1)C2 [Example 38] | 3.5 |

Continued, values first:

| EC50 [nM] | SMILES |
| --- | --- |
| 18.4 | CC(C)Nc1cc(-c2ccc3cc(C#N)cnn23)ncc1-c1nnc(N2C[C@H]3CC[C@@H](C2)[C@@H]3Nc2ncccn2)s1 [Example 308, 7-(4-(isopropylamino)-5-(5-((1R,5S,8s)-8-(pyrimidin-2-ylamino)-3-azabicyclo[3.2.1]octan-3-yl)-1,3,4-thiadiazol-2-yl)pyridin-2-yl)pyrrolo[1,2-b]pyridazine-3-carbonitrile] |
| 21.4 | CC(=O)NC[C@H]1C[C@@H](c2nnc(-c3cnc(-c4ccc5cc(C#N)cnn45)cc3NC(C)C)s2)C1 [Example 289, N-(((1s,3s)-3-(5-(6-(3-cyanopyrrolo[1,2-b]pyridazin-7-yl)-4-(isopropylamino)pyridin-3-yl)-1,3,4-thiadiazol-2-yl)cyclobutyl)methyl)acetamide] |
| 102 | CCOC(=O)Cc1nnc(-c2cnc(-c3ccc4cc(C#N)cnn34)cc2NC(C)C)s1 [Example 318] |
| 18.4 | CC1(O)CCN(c2nnc(-c3cnc(-c4ccc5cc(C#N)cnn45)cc3NC3(C)COC3)s2)CC1 [Example 181, 7-(5-(5-(4-hydroxy-4-methylpiperidin-l-yl)-1,3,4-thiadiazol-2-yl)-4-((3-methyloxetan-3-yl)amino)pyridin-2-yl)pyrrolo[1,2-b]pyridazine-3-carbonitrile] |
| 34.9 | CC(=O)N[C@H]1C[C@H](c2nnc(-c3cnc(-c4ccc5cc(C#N)cnn45)cc3NC3CCOCC3)s2)C1 [Example 201] |
| 166 | CC(=O)N[C@H]1C[C@H](c2nnc(-c3cnc(-c4ccc5cc(C#N)cnn45)cc3NC3COC3)s2)C1 [Example 202] |
| 17.5 | CC(C)Nc1cc(-c2ccc3cc(C#N)cnn23)ncc1-c1nnc([C@H]2CC[C@@H](NC(=O)C(C)(C)O)CC2)s1 [Example 312, N-((1s,4s)-4-(5-(6-(3-cyanopyrrolo[1,2-b]pyridazin-7-yl)-4-(isopropylamino)pyridin-3-yl)-1,3,4-thiadiazol-2-yl)cyclohexyl)-2-hydroxy-2-methylpropanamide] |
| 37.8 | CC(=O)N[C@H]1[C@@H]2COC[C@H]1CN(c1nnc(-c3cnc(-c4ccc5cc(C#N)cnn45)cc3NC(C)C)s1)C2 [Example 182, N-((1R,5S,9r)-7-(5-(6-(3-cyanopyrrolo[1,2-b]pyridazin-7-yl)-4-(isopropylamino)pyridin-3-yl)-1,3,4-thiadiazol-2-yl)-3-oxa-7-azabicyclo[3.3.1]nonan-9-yl)acetamide] |
| 22.6 | CC(C)(O)C(=O)N[C@H]1CC[C@@H](c2nnc(-c3cnc(-c4ccc5cc(C#N)cnn45)cc3NC3COC3)s2)CC1 [Example 311, N-((1s,4s)-4-(5-(6-(3-cyanopyrrolo[1,2-b]pyridazin-7-yl)-4-(oxetan-3-ylamino)pyridin-3-yl)-1,3,4-thiadiazol-2-yl)cyclohexyl)-2-hydroxy-2-methylpropanamide] |
